Source: the kinase profiling compilation of Christmann-Franck et al. (2016)

Columns and labels:
Experiment in all cases: radiometric filter-binding kinase assay
AURKB (human) = AURKB (human) (UniProt Q96GD4)
BRSK2 (human) = BRSK2 (human) (UniProt Q8IWQ3)
CAMKK2 (human) = CAMKK2 (human) (UniProt Q96RR4)
CHEK1 (human) = CHEK1 (human) (UniProt O14757)
CLK2 (human) = CLK2 (human) (UniProt P49760); conditions: compound 0.1 µM
CSNK2A1 (human) = CSNK2A1 (human) (UniProt P68400)
CaMK1 (human) = CaMK1 (human) (UniProt Q14012)
DAPK1 (human) = DAPK1 (human) (UniProt P53355); conditions: compound 0.1 µM
DYRK1A (human) = DYRK1A (human) (UniProt Q13627)
DYRK3 (human) = DYRK3 (human) (UniProt O43781)
DYRK3 (human), sequence (O43781 whole entry, looked up): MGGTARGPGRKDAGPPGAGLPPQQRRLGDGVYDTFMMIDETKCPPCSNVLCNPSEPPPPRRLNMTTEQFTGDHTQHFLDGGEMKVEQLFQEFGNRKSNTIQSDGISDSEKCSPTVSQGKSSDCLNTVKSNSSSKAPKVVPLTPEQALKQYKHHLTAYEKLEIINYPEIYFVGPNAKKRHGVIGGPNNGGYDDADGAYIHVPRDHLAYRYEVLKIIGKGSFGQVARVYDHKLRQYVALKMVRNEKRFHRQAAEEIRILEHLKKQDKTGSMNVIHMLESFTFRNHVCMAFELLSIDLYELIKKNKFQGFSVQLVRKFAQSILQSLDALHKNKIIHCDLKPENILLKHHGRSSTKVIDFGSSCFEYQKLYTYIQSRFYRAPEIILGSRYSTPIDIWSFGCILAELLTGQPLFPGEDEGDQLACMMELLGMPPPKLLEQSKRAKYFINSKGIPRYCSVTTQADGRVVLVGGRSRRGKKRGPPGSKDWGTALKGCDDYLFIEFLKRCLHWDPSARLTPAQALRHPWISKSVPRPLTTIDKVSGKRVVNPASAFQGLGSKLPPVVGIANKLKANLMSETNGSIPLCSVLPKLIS

EPHB2 (human) = EPHB2 (human) (UniProt P29323); conditions: compound 0.1 µM
FGFR1 (human) = FGFR1 (human) (UniProt P11362)
GCK (human) = GCK (human) (UniProt Q12851)
HIPK1 (human) = HIPK1 (human) (UniProt Q86Z02); conditions: compound 0.1 µM
HIPK2 (human) = HIPK2 (human) (UniProt Q9H2X6)
HIPK2 (human), sequence (Q9H2X6 whole entry, looked up): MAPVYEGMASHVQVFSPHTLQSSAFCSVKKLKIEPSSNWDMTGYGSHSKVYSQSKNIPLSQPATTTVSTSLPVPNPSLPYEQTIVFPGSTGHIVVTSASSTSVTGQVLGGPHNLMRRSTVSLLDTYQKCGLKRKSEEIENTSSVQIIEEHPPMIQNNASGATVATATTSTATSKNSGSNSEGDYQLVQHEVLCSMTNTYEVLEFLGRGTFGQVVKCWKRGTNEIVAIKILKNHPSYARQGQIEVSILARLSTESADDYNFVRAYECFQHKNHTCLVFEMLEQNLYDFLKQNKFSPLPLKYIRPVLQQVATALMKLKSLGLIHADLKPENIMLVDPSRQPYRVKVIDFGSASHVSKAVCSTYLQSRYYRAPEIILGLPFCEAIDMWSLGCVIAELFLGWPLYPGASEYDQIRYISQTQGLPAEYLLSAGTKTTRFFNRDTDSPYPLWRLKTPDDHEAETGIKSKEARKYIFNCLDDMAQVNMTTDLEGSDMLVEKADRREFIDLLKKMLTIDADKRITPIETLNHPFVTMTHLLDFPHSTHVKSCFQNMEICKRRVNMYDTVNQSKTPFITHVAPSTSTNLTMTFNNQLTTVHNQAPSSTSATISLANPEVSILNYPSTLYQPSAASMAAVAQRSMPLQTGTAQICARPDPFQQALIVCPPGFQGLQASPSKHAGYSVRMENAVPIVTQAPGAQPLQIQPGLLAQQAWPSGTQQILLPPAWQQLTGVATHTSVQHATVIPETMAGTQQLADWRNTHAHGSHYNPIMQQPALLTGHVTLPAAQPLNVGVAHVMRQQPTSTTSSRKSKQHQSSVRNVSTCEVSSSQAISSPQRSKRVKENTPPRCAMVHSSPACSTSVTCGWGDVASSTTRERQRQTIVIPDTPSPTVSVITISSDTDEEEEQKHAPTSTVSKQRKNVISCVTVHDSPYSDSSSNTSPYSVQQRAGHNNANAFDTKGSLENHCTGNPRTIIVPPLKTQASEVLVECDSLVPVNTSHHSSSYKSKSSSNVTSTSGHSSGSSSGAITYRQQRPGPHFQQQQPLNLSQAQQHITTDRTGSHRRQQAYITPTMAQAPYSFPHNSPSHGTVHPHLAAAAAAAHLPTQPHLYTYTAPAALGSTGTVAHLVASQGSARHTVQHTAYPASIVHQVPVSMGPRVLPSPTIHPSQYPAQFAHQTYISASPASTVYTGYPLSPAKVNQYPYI

IGF1R (human) = IGF1R (human) (UniProt P08069)
IGF1R (human), sequence (P08069 whole entry, looked up): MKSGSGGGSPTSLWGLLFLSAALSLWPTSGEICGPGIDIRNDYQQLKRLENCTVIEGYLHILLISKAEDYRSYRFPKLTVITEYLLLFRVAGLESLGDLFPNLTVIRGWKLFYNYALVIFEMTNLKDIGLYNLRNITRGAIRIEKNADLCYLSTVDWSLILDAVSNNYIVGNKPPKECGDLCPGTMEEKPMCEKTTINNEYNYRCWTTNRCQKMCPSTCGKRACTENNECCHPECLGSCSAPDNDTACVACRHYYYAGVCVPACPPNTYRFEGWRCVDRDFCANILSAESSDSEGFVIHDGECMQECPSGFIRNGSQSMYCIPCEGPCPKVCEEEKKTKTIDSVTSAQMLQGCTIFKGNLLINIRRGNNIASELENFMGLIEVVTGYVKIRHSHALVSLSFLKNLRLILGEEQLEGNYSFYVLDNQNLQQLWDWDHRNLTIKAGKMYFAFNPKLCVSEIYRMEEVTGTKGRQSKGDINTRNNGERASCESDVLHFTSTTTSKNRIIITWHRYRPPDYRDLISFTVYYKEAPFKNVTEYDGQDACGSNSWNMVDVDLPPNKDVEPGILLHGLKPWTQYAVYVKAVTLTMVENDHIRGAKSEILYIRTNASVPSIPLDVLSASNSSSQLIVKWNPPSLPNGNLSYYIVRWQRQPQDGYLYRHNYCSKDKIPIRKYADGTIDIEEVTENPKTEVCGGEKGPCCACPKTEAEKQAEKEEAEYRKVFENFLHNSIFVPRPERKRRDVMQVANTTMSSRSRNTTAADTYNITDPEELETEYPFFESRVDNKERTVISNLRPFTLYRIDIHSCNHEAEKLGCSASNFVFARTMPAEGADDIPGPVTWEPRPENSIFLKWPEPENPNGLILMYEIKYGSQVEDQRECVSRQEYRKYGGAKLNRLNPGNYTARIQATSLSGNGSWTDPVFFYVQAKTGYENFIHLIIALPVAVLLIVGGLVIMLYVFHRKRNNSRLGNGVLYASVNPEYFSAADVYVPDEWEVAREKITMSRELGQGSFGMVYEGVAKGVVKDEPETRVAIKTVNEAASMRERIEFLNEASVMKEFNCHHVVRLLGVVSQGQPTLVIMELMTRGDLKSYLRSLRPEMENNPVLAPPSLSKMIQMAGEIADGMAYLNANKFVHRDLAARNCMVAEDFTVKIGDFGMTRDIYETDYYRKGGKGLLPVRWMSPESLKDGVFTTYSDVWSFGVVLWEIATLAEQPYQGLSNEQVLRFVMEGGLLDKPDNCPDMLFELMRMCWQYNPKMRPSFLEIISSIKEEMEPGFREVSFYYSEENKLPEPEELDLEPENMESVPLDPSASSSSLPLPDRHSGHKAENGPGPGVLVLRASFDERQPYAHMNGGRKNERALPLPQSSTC

JAK2 JH1 JH2 (human) = JAK2 JH1 JH2 (human) (UniProt O60674); conditions: compound 0.1 µM
LCK (mouse) = conditions: accession and sequence are those of the human protein
MAPK10 (human) = MAPK10 (human) (UniProt P53779); conditions: compound 0.1 µM
MAPK11 (human) = MAPK11 (human) (UniProt Q15759)
MAPK13 (human) = MAPK13 (human) (UniProt O15264)
MAPK13 (human), sequence (O15264 whole entry, looked up): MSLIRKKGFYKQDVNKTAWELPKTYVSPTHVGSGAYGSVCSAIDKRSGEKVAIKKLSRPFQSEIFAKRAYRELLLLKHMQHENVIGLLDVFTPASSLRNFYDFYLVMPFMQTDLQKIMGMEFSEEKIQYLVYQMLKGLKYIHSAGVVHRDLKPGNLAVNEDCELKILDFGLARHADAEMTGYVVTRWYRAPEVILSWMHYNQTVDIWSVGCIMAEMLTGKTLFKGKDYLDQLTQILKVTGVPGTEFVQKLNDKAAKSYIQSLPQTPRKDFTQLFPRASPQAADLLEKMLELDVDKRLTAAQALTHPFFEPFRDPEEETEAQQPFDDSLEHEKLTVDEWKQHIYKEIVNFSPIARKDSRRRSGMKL

MAPK8 (human) = MAPK8 (human) (UniProt P45983)
MAPKAPK5 (human) = MAPKAPK5 (human) (UniProt Q8IW41)
MARK3 (human) = MARK3 (human) (UniProt P27448)
MINK1 (human) = MINK1 (human) (UniProt Q8N4C8)
MKNK1 (human) = MKNK1 (human) (UniProt Q9BUB5)
[1] = tested on: PAK2 (human), Q13177 [T402E]; conditions: compound 0.1 µM
PHKG1 (human) = PHKG1 (human) (UniProt Q16816)
PIM3 (human) = PIM3 (human) (UniProt Q86V86)
ROCK2 (rat) = conditions: accession and sequence are those of the human protein
[2] = tested on: SGK1 (human), O00141 [S422D]
SRPK1 (human) = SRPK1 (human) (UniProt Q96SB4)
STK3 (human) = STK3 (human) (UniProt Q13188)
STK3 (human), sequence (Q13188 whole entry, looked up): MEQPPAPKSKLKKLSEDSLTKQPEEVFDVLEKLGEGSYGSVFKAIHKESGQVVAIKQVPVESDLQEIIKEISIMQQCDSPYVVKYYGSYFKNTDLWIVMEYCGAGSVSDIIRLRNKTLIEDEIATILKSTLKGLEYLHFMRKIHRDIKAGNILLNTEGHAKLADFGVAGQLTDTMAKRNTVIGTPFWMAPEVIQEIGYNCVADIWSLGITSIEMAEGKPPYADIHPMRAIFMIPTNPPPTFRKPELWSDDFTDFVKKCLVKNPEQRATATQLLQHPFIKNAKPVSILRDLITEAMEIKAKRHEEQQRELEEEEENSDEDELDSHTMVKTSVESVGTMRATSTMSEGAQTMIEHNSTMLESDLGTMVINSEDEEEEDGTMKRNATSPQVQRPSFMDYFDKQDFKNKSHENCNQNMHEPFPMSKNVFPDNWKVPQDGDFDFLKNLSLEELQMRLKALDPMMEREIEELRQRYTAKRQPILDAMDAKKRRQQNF

TAOK1 (human) = TAOK1 (human) (UniProt Q7L7X3); conditions: compound 0.1 µM
TBK1 (human) = TBK1 (human) (UniProt Q9UHD2)
TBK1 (human), sequence (Q9UHD2 whole entry, looked up): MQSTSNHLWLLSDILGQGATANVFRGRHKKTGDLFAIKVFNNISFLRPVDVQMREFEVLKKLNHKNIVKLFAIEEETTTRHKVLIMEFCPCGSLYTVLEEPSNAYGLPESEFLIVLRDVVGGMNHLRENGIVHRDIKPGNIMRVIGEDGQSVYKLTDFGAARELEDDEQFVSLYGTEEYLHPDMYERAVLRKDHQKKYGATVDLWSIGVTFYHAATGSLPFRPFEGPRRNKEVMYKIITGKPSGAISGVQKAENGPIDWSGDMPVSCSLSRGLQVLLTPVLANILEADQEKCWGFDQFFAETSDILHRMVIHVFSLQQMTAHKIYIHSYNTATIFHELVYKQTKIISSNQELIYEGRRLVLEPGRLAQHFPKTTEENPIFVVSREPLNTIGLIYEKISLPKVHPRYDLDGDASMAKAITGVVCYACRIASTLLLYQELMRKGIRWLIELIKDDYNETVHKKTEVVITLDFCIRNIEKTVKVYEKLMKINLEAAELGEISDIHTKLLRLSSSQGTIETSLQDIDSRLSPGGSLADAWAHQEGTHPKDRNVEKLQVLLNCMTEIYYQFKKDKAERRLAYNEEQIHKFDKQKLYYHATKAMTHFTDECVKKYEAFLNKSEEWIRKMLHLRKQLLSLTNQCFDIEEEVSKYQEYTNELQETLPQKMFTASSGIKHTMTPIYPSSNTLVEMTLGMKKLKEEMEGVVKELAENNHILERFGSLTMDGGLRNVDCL

YES1 (human) = YES1 (human) (UniProt P07947)

O=C(O)c1ccc(-c2c[nH]c3ncc(-c4ccccc4)cc23)cc1C1CCCC1
residual activity (AURKB (human); compound 0.1 µM): 85%
residual activity (AURKB (human); compound 1.0 µM): 32%
residual activity (AURKB (human); compound 10.0 µM): 6%
residual activity (BRSK2 (human); compound 0.1 µM): 86%
residual activity (BRSK2 (human); compound 1.0 µM): 61%
residual activity (BRSK2 (human); compound 10.0 µM): 20%
residual activity (CAMKK2 (human); compound 0.1 µM): 11%
residual activity (CAMKK2 (human); compound 1.0 µM): 2%
residual activity (CAMKK2 (human); compound 10.0 µM): 2%
residual activity (CHEK1 (human); compound 0.1 µM): 112%
residual activity (CHEK1 (human); compound 1.0 µM): 108%
residual activity (CHEK1 (human); compound 10.0 µM): 79%
residual activity (CLK2 (human)): 65%
residual activity (CSNK2A1 (human); compound 0.1 µM): 96%
residual activity (CSNK2A1 (human); compound 10.0 µM): 46%
residual activity (CaMK1 (human); compound 0.1 µM): 104%
residual activity (CaMK1 (human); compound 1.0 µM): 99%
residual activity (CaMK1 (human); compound 10.0 µM): 80%
residual activity (DAPK1 (human)): 87%
residual activity (DYRK1A (human); compound 0.1 µM): 79%
residual activity (DYRK1A (human); compound 1.0 µM): 47%
residual activity (DYRK1A (human); compound 10.0 µM): 8%
residual activity (DYRK3 (human); compound 0.1 µM): 79%
residual activity (DYRK3 (human); compound 1.0 µM): 57%
residual activity (DYRK3 (human); compound 10.0 µM): 17%
residual activity (EPHB2 (human)): 86%
residual activity (FGFR1 (human); compound 0.1 µM): 99%
residual activity (FGFR1 (human); compound 1.0 µM): 77%
residual activity (FGFR1 (human); compound 10.0 µM): 27%
residual activity (GCK (human); compound 0.1 µM): 8%
residual activity (GCK (human); compound 1.0 µM): 3%
residual activity (GCK (human); compound 10.0 µM): 1%
residual activity (HIPK1 (human)): 99%
residual activity (HIPK2 (human); compound 0.1 µM): 70%
residual activity (HIPK2 (human); compound 1.0 µM): 58%
residual activity (HIPK2 (human); compound 10.0 µM): 15%
residual activity (IGF1R (human); compound 0.1 µM): 100%
residual activity (IGF1R (human); compound 1.0 µM): 103%
residual activity (IGF1R (human); compound 10.0 µM): 18%
residual activity (JAK2 JH1 JH2 (human)): 24%
residual activity (LCK (mouse); compound 0.1 µM): 109%
residual activity (LCK (mouse); compound 1.0 µM): 79%
residual activity (MAPK10 (human)): 73%
residual activity (MAPK11 (human); compound 0.1 µM): 109%
residual activity (MAPK11 (human); compound 1.0 µM): 112%
residual activity (MAPK11 (human); compound 10.0 µM): 71%
residual activity (MAPK13 (human); compound 0.1 µM): 118%
residual activity (MAPK13 (human); compound 1.0 µM): 87%
residual activity (MAPK13 (human); compound 10.0 µM): 62%
residual activity (MAPK8 (human); compound 0.1 µM): 81%
residual activity (MAPK8 (human); compound 1.0 µM): 74%
residual activity (MAPK8 (human); compound 10.0 µM): 39%
residual activity (MAPKAPK5 (human); compound 0.1 µM): 107%
residual activity (MAPKAPK5 (human); compound 1.0 µM): 77%
residual activity (MAPKAPK5 (human); compound 10.0 µM): 73%
residual activity (MARK3 (human); compound 0.1 µM): 89%
residual activity (MARK3 (human); compound 1.0 µM): 60%
residual activity (MARK3 (human); compound 10.0 µM): 29%
residual activity (MINK1 (human); compound 0.1 µM): 68%
residual activity (MINK1 (human); compound 1.0 µM): 19%
residual activity (MINK1 (human); compound 10.0 µM): 2%
residual activity (MKNK1 (human); compound 0.1 µM): 28%
residual activity (MKNK1 (human); compound 1.0 µM): 3%
residual activity (MKNK1 (human); compound 10.0 µM): 3%
residual activity [1]: 99%
residual activity (PHKG1 (human); compound 0.1 µM): 34%
residual activity (PHKG1 (human); compound 1.0 µM): 3%
residual activity (PHKG1 (human); compound 10.0 µM): 0%
residual activity (PIM3 (human); compound 0.1 µM): 90%
residual activity (PIM3 (human); compound 1.0 µM): 86%
residual activity (PIM3 (human); compound 10.0 µM): 45%
residual activity (ROCK2 (rat); compound 0.1 µM): 84%
residual activity (ROCK2 (rat); compound 1.0 µM): 59%
residual activity (ROCK2 (rat); compound 10.0 µM): 33%
residual activity ([2]; compound 0.1 µM): 56%
residual activity ([2]; compound 1.0 µM): 9%
residual activity ([2]; compound 10.0 µM): 1%
residual activity (SRPK1 (human); compound 0.1 µM): 82%
residual activity (SRPK1 (human); compound 1.0 µM): 104%
residual activity (SRPK1 (human); compound 10.0 µM): 50%
residual activity (STK3 (human); compound 0.1 µM): 68%
residual activity (STK3 (human); compound 1.0 µM): 22%
residual activity (STK3 (human); compound 10.0 µM): 4%
residual activity (TAOK1 (human)): 98%
residual activity (TBK1 (human); compound 0.1 µM): 86%
residual activity (TBK1 (human); compound 1.0 µM): 70%
residual activity (TBK1 (human); compound 10.0 µM): 27%
residual activity (YES1 (human); compound 0.1 µM): 105%
residual activity (YES1 (human); compound 1.0 µM): 93%
residual activity (YES1 (human); compound 10.0 µM): 42%
